Results on eight molecules are retold here after ChEMBL document CHEMBL3853280, “Unexpected Metabolic Versatility in a Combined Fungal Fomannoxin/Vibralactone Biosynthesis” (2016).

The structures appear in SMILES notation. Values after ≈ are worked out from the molar mass of the structure shown. A value given as a limit tells only on which side of the number the result lay.

Holding throughout (format): functional
In one test the test system is Aspergillus fumigatus. The test can be described thus: Antifungal activity against Aspergillus fumigatus by broth dilution assay. Background: Dilution methods test growth across graded concentrations, often in twofold steps.
Test [1] is described as follows: Antifungal activity against Penicillium notatum by broth dilution assay. The settings on record: Penicillium chrysogenum.
For another test, the system named is Trichophyton benhamiae. The test is described as follows: Antifungal activity against Arthroderma benhamiae by broth dilution assay.

For the molecule `C=C(C)COc1ccc(C(=O)OC)cc1CO`, the MIC in the test on Aspergillus fumigatus was more than 100 µg/mL; in test [1], 25 µg/mL (≈ 106 µM); in the test on Trichophyton benhamiae, 25 µg/mL (≈ 106 µM).
Regarding `COC(=O)c1ccc(OC=C(C)C)c(CO)c1`, the MIC against Aspergillus fumigatus stood at 50 µg/mL (≈ 212 µM); in test [1], 25 µg/mL (≈ 106 µM); against Trichophyton benhamiae, 6.25 µg/mL (≈ 26.5 µM).
In the case of `CC1=CC=C(CC2CCOC2=O)C(=O)OC1` (centres undefined), the results for the MIC (in the test with Aspergillus fumigatus; in test [1]; against Trichophyton benhamiae) were more than 100 µg/mL, 25 µg/mL (≈ 112 µM) and more than 100 µg/mL, respectively.
For `C=C(C)COc1ccc(C(=O)OC)cc1C=O`, the figures for the MIC (with Aspergillus fumigatus; in test [1]; in the test with Trichophyton benhamiae) were 50 µg/mL (≈ 213 µM), 25 µg/mL (≈ 107 µM) and 6.25 µg/mL (≈ 26.7 µM), respectively.
The matching figures for `COC(=O)c1ccc(OC=C(C)C)cc1`: more than 100 µg/mL, 25 µg/mL (≈ 121 µM) and 100 µg/mL (≈ 485 µM).
The matching figures for `CC(C)=C/C=C/C=C1\CCOC1=O`: more than 100 µg/mL, 25 µg/mL (≈ 140 µM) and 12.5 µg/mL (≈ 70.1 µM).
On the same counts, the results for `CC(C)=CC[C@@]12C=C(CO)C[C@@H]1OC2=O` are more than 100 µg/mL, 25 µg/mL (≈ 120 µM) and 50 µg/mL (≈ 240 µM).
On to `CC(=O)OCC1=C[C@@]2(CC=C(C)C)C(=O)O[C@H]2C1`, for which the MIC in the test on Aspergillus fumigatus is more than 100 µg/mL; in test [1] it was 25 µg/mL (≈ 99.9 µM); with Trichophyton benhamiae it was 50 µg/mL (≈ 200 µM).

The term MIC denotes the least concentration at which growth counts as inhibited. A lower MIC goes with inhibition by little substance.
